{"source": "PubChem BioAssay AID1745844", "about": "(Carcinogenic Potency Database (CPDB), 2022)", "system": "rodent lifetime carcinogenesis bioassay, tumor incidence TD50", "assay": "chronic cancer bioassays in animals – CPDB, compiled studies (AID 1745844)", "note": "The source made the active and inactive calls. The rule behind the calls is not given here.", "data": [{"smiles": "O=C(O)CCCC/C=C(\\c1ccccc1)c1cccnc1", "values": [{"measurement": "carcinogen call", "setting": "mouse, strain Charles River CD1, females, in feed, site: any site (literature study), lesion: several types, types named in the paper, dosed 104 weeks, study length 104 weeks", "result": "negative (inactive)"}, {"measurement": "TD50", "setting": "mouse, strain Charles River CD1, females, in feed, site: liver, lesion: hepatocellular adenoma, dosed 104 weeks, study length 104 weeks", "result": "4930 mg/kg/day (inactive)"}, {"measurement": "carcinogen call", "setting": "mouse, strain Charles River CD1, females, in feed, site: lung, lesion: alveolar/bronchiolar adenoma, dosed 104 weeks, study length 104 weeks", "result": "negative (inactive)"}, {"measurement": "carcinogen call", "setting": "mouse, strain Charles River CD1, females, in feed, site: lung, lesion: alveolar/bronchiolar carcinoma, dosed 104 weeks, study length 104 weeks", "result": "negative (inactive)"}, {"measurement": "TD50", "setting": "mouse, strain Charles River CD1, males, in feed, site: any site (literature study), lesion: several types, types named in the paper, dosed 104 weeks, study length 104 weeks", "result": "1090 mg/kg/day (inactive)"}, {"measurement": "TD50", "setting": "mouse, strain Charles River CD1, males, in feed, site: liver, lesion: hepatocellular adenoma, dosed 104 weeks, study length 104 weeks", "result": "2050 mg/kg/day (inactive)"}, {"measurement": "TD50", "setting": "mouse, strain Charles River CD1, males, in feed, site: liver, lesion: hepatocellular carcinoma, dosed 104 weeks, study length 104 weeks", "result": "10200 mg/kg/day (inactive)"}, {"measurement": "TD50", "setting": "mouse, strain Charles River CD1, males, in feed, site: lung, lesion: alveolar/bronchiolar adenoma, dosed 104 weeks, study length 104 weeks", "result": "1220 mg/kg/day (inactive)"}, {"measurement": "carcinogen call", "setting": "mouse, strain Charles River CD1, males, in feed, site: lung, lesion: alveolar/bronchiolar carcinoma, dosed 104 weeks, study length 104 weeks", "result": "negative (inactive)"}, {"measurement": "carcinogen call", "setting": "rat, strain Charles River CD (Sprague-Dawley), females, in feed, site: liver, lesion: hepatocellular adenoma, dosed 104 weeks, study length 104 weeks", "result": "negative (inactive)"}, {"measurement": "carcinogen call", "setting": "rat, strain Charles River CD (Sprague-Dawley), males, in feed, site: liver, lesion: hepatocellular adenoma, dosed 104 weeks, study length 104 weeks", "result": "negative (inactive)"}]}, {"smiles": "Nc1ccc(N)c(Cl)c1", "values": [{"measurement": "TD50", "setting": "mouse, strain B6C3F1, females, in feed, site: any site (literature study), lesion: several types, types named in the paper, dosed 96 weeks, study length 104 weeks", "result": "1430 mg/kg/day (inactive)"}, {"measurement": "TD50", "setting": "mouse, strain B6C3F1, females, in feed, site: liver, lesion: hepatocellular adenoma + hepatocellular carcinoma + neoplastic nodule, dosed 96 weeks, study length 104 weeks", "result": 1590, "unit": "mg/kg/day"}, {"measurement": "TD50", "setting": "mouse, strain B6C3F1, females, in feed, site: lung, lesion: alveolar/bronchiolar adenoma + alveolar/bronchiolar carcinoma, dosed 96 weeks, study length 104 weeks", "result": 3330, "unit": "mg/kg/day"}, {"measurement": "TD50", "setting": "mouse, strain B6C3F1, males, in feed, site: any site (literature study), lesion: several types, types named in the paper, dosed 95 weeks, study length 104 weeks", "result": "4380 mg/kg/day (inactive)"}, {"measurement": "TD50", "setting": "mouse, strain B6C3F1, males, in feed, site: liver, lesion: hepatocellular adenoma + hepatocellular carcinoma + neoplastic nodule, dosed 95 weeks, study length 104 weeks", "result": 1310, "unit": "mg/kg/day"}, {"measurement": "carcinogen call", "setting": "rat, strain Fischer 344, females, in feed, site: any site (literature study), lesion: several types, types named in the paper, dosed 105 weeks, study length 105 weeks", "result": "negative (inactive)"}, {"measurement": "TD50", "setting": "rat, strain Fischer 344, females, in feed, site: liver, lesion: hepatocellular adenoma + hepatocellular carcinoma + neoplastic nodule, dosed 105 weeks, study length 105 weeks", "result": 3600, "unit": "mg/kg/day"}, {"measurement": "TD50", "setting": "rat, strain Fischer 344, males, in feed, site: any site (literature study), lesion: several types, types named in the paper, dosed 105 weeks, study length 105 weeks", "result": "244 mg/kg/day (inactive)"}, {"measurement": "TD50", "setting": "rat, strain Fischer 344, males, in feed, site: liver, lesion: hepatocellular adenoma + hepatocellular carcinoma + neoplastic nodule, dosed 105 weeks, study length 105 weeks", "result": 665, "unit": "mg/kg/day"}]}, {"smiles": "C=CBr", "values": [{"measurement": "TD50", "setting": "rat, strain Sprague-Dawley, females, inhaled, site: Zymbal's gland, lesion: squamous-cell carcinoma, dosed 81 weeks, study length 103 weeks", "result": 2240, "unit": "mg/kg/day"}, {"measurement": "TD50", "setting": "rat, strain Sprague-Dawley, females, inhaled, site: liver, lesion: hepatocellular carcinoma, dosed 81 weeks, study length 103 weeks", "result": 749, "unit": "mg/kg/day"}, {"measurement": "TD50", "setting": "rat, strain Sprague-Dawley, females, inhaled, site: liver, lesion: neoplastic nodule, dosed 81 weeks, study length 103 weeks", "result": 18.9, "unit": "mg/kg/day"}, {"measurement": "TD50", "setting": "rat, strain Sprague-Dawley, females, inhaled, site: liver, lesion: several types, types named in the paper, dosed 81 weeks, study length 103 weeks", "result": 433, "unit": "mg/kg/day"}, {"measurement": "TD50", "setting": "rat, strain Sprague-Dawley, females, inhaled, site: several sites, sites named in the paper, lesion: angiosarcoma, dosed 81 weeks, study length 103 weeks", "result": 19.2, "unit": "mg/kg/day"}, {"measurement": "TD50", "setting": "rat, strain Sprague-Dawley, males, inhaled, site: Zymbal's gland, lesion: papilloma, dosed 76 weeks, study length 103 weeks", "result": 2760, "unit": "mg/kg/day"}, {"measurement": "TD50", "setting": "rat, strain Sprague-Dawley, males, inhaled, site: Zymbal's gland, lesion: squamous-cell carcinoma, dosed 76 weeks, study length 103 weeks", "result": 409, "unit": "mg/kg/day"}, {"measurement": "TD50", "setting": "rat, strain Sprague-Dawley, males, inhaled, site: liver, lesion: hepatocellular carcinoma, dosed 76 weeks, study length 103 weeks", "result": 387, "unit": "mg/kg/day"}, {"measurement": "TD50", "setting": "rat, strain Sprague-Dawley, males, inhaled, site: liver, lesion: several types, types named in the paper, dosed 76 weeks, study length 103 weeks", "result": 303, "unit": "mg/kg/day"}, {"measurement": "TD50", "setting": "rat, strain Sprague-Dawley, males, inhaled, site: several sites, sites named in the paper, lesion: angiosarcoma, dosed 76 weeks, study length 103 weeks", "result": 17.9, "unit": "mg/kg/day"}]}, {"smiles": "Nc1cnn([C@@H]2O[C@H](CO)[C@@H](O)[C@H]2O)c(=O)n1", "values": [{"measurement": "carcinogen call", "setting": "rat, strain Fischer 344, males, i.p., site: any site (literature study), lesion: one or several types, types not named, dosed 52 weeks, study length 52 weeks", "result": "negative (inactive)"}]}, {"smiles": "O=NN1CCC(O)C1", "note": "(centres undefined)", "values": [{"measurement": "TD50", "setting": "rat, strain Sprague-Dawley, both sexes, in drinking water, site: any site (literature study), lesion: malignant tumor, dosed 112 weeks, study length 112 weeks", "result": 7.65, "unit": "mg/kg/day"}, {"measurement": "TD50", "setting": "rat, strain Sprague-Dawley, both sexes, in drinking water, site: liver, lesion: hepatocellular carcinoma, dosed 112 weeks, study length 112 weeks", "result": 8.11, "unit": "mg/kg/day"}]}, {"smiles": "COc1ccc(C(Cl)=C(c2ccc(OC)cc2)c2ccc(OC)cc2)cc1", "values": [{"measurement": "carcinogen call", "setting": "rat, strain Charles River CD (Sprague-Dawley), females, in feed, site: liver, lesion: one or several types, types not named, dosed 104 weeks, study length 104 weeks", "result": "negative (inactive)"}, {"measurement": "carcinogen call", "setting": "rat, strain Charles River CD (Sprague-Dawley), males, in feed, site: liver, lesion: one or several types, types not named, dosed 104 weeks, study length 104 weeks", "result": "negative (inactive)"}]}, {"smiles": "O=C(OOC(=O)c1ccccc1)c1ccccc1", "values": [{"measurement": "carcinogen call", "setting": "mouse, strain albino, both sexes, in feed, site: liver, lesion: hepatoma, dosed 80 weeks, study length 80 weeks", "result": "negative (inactive)"}, {"measurement": "carcinogen call", "setting": "mouse, strain albino, both sexes, in feed, site: lung, lesion: adenoma, dosed 80 weeks, study length 80 weeks", "result": "negative (inactive)"}, {"measurement": "TD50", "setting": "rat, strain albino, both sexes, in feed, site: any site (literature study), lesion: benign tumor, dosed 120 weeks, study length 120 weeks", "result": "6480 mg/kg/day (inactive)"}, {"measurement": "TD50", "setting": "rat, strain albino, both sexes, in feed, site: any site (literature study), lesion: malignant tumor, dosed 120 weeks, study length 120 weeks", "result": "15600 mg/kg/day (inactive)"}, {"measurement": "carcinogen call", "setting": "rat, strain albino, both sexes, in feed, site: liver, lesion: malignant hepatoma, dosed 120 weeks, study length 120 weeks", "result": "negative (inactive)"}]}, {"smiles": "c1ccc2ccccc2c1", "values": [{"measurement": "TD50", "setting": "mouse, strain B6C3F1, females, inhaled, site: any site (literature study), lesion: several types, types named in the paper, dosed 103 weeks, study length 104 weeks", "result": 128, "unit": "mg/kg/day"}, {"measurement": "TD50", "setting": "mouse, strain B6C3F1, females, inhaled, site: lung, lesion: alveolar/bronchiolar adenoma + alveolar/bronchiolar carcinoma, dosed 103 weeks, study length 104 weeks", "result": 163, "unit": "mg/kg/day"}, {"measurement": "TD50", "setting": "mouse, strain B6C3F1, females, inhaled, site: lung, lesion: alveolar/bronchiolar adenoma, dosed 103 weeks, study length 104 weeks", "result": 171, "unit": "mg/kg/day"}, {"measurement": "TD50", "setting": "mouse, strain B6C3F1, females, inhaled, site: lung, lesion: alveolar/bronchiolar carcinoma, dosed 103 weeks, study length 104 weeks", "result": 4020, "unit": "mg/kg/day"}, {"measurement": "carcinogen call", "setting": "mouse, strain B6C3F1, males, inhaled, site: any site (literature study), lesion: several types, types named in the paper, dosed 103 weeks, study length 104 weeks", "result": "negative (inactive)"}, {"measurement": "TD50", "setting": "rat, strain Fischer 344, females, inhaled, site: nasal cavity, olfactory epithelium + nasal cavity, respiratory epithelium, lesion: neuroblastoma + adenoma, dosed 105 weeks, study length 105 weeks", "result": 37.3, "unit": "mg/kg/day"}, {"measurement": "TD50", "setting": "rat, strain Fischer 344, females, inhaled, site: nasal cavity, olfactory epithelium, lesion: neuroblastoma, dosed 105 weeks, study length 105 weeks", "result": 52.9, "unit": "mg/kg/day"}, {"measurement": "TD50", "setting": "rat, strain Fischer 344, females, inhaled, site: nasal cavity, respiratory epithelium, lesion: adenoma, dosed 105 weeks, study length 105 weeks", "result": 121, "unit": "mg/kg/day"}, {"measurement": "TD50", "setting": "rat, strain Fischer 344, males, inhaled, site: any site (literature study), lesion: several types, types named in the paper, dosed 104 weeks, study length 104 weeks", "result": 27.5, "unit": "mg/kg/day"}, {"measurement": "TD50", "setting": "rat, strain Fischer 344, males, inhaled, site: liver, lesion: hepatocellular adenoma + hepatoblastoma + hepatocellular carcinoma, dosed 104 weeks, study length 104 weeks", "result": 171, "unit": "mg/kg/day"}, {"measurement": "TD50", "setting": "rat, strain Fischer 344, males, inhaled, site: mammary gland, lesion: fibroadenoma, dosed 104 weeks, study length 104 weeks", "result": 133, "unit": "mg/kg/day"}, {"measurement": "TD50", "setting": "rat, strain Fischer 344, males, inhaled, site: nasal cavity, olfactory epithelium + nasal cavity, respiratory epithelium, lesion: neuroblastoma + adenoma, dosed 104 weeks, study length 104 weeks", "result": 12.3, "unit": "mg/kg/day"}, {"measurement": "TD50", "setting": "rat, strain Fischer 344, males, inhaled, site: nasal cavity, olfactory epithelium, lesion: neuroblastoma, dosed 104 weeks, study length 104 weeks", "result": 88, "unit": "mg/kg/day"}, {"measurement": "TD50", "setting": "rat, strain Fischer 344, males, inhaled, site: nasal cavity, respiratory epithelium, lesion: adenoma, dosed 104 weeks, study length 104 weeks", "result": 14, "unit": "mg/kg/day"}]}]}
